Laboratory results: patent US7572797B2, “Amino substituted pyrazine derivatives for the treatment of pain” (Pfizer Inc., priority 2005, dated 2009)
Where two headings read alike, the source gives them in different places.

Tests used:
[1] = system: tetrodotoxin-sensitive voltage-gated sodium channels including NaV1.2, NaV1.3 and NaV1.7 (SHSY-5Y cell line); assay: TTX-S assay in SHSY-5Y cell line (VIPR procedure, veratridine as opener); assay type: cell-based; details: read-out: TTX-S IC50, SHSY-5Y cells, veratridine 50 μM, average of replicates
[2] = target: T1, Human Nav1.8 (Homo sapiens, UniProt Q9Y5Y9); assay: VIPR assay for Nav1.8 (FRET membrane potential, deltamethrin as opener); assay type: cell-based; details: for IC50: HEK293 cells expressing human Nav1.8, average of replicates; for Selectivity Ratio: TTX-S IC50 / NaV1.8 IC50
T1 construct: expressed in transfected cells

[3] = automated dissolution procedure

T1 sequence (Q9Y5Y9 whole entry): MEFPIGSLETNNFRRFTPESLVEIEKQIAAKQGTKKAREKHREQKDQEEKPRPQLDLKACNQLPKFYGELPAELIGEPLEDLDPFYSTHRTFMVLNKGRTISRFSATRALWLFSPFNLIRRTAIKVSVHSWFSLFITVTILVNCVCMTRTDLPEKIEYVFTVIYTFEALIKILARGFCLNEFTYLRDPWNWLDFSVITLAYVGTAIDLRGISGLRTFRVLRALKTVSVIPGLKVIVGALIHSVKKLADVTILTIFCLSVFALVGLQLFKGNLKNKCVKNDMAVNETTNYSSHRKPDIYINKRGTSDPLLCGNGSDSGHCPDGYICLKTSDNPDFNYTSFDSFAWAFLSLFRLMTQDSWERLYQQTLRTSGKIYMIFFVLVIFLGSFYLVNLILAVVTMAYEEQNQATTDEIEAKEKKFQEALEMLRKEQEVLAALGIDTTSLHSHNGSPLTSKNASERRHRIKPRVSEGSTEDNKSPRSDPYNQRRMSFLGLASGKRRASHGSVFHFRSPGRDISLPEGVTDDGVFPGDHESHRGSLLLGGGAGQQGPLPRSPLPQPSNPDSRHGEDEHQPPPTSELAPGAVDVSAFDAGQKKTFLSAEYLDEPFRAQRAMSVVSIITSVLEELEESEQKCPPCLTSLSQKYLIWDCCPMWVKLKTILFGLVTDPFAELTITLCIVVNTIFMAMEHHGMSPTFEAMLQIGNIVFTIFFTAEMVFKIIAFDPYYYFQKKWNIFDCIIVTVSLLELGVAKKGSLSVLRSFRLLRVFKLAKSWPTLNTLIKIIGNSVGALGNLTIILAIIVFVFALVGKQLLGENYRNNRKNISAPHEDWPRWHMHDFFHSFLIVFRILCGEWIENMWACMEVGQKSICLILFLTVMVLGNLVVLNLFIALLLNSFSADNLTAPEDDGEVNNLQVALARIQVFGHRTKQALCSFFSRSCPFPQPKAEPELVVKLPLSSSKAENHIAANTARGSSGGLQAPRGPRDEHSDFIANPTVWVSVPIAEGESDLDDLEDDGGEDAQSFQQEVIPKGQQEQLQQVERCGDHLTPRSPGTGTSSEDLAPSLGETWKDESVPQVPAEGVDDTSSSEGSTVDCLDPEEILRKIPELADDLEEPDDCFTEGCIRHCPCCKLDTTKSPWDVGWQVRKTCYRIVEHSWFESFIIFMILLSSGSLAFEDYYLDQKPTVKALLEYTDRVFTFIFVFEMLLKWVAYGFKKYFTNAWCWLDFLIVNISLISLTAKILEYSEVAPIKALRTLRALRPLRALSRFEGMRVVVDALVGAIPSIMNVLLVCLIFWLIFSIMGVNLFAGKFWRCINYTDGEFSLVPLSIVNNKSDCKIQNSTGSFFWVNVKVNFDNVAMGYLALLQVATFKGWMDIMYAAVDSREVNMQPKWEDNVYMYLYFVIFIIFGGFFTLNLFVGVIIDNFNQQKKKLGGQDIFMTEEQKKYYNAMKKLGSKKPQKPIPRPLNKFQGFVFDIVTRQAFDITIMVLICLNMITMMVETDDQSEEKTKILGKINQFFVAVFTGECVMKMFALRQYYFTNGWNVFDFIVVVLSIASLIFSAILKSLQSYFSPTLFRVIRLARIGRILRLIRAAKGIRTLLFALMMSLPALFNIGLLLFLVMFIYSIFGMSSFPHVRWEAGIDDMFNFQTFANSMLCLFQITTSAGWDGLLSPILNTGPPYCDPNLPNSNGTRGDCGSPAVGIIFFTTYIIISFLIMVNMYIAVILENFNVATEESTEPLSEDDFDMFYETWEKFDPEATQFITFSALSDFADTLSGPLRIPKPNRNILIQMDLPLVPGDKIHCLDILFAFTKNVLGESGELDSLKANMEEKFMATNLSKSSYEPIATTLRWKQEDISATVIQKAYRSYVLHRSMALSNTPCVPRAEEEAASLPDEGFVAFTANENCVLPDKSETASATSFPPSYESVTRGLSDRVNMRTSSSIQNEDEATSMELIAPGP

For `Cn1nccc1C(=O)Nc1cnc(-c2cc(Cl)cc(Cl)c2Cl)c(N)n1` [Example 1, N-[6-Amino-5-(2,3,5-trichlorophenyl)pyrazin-2-yl]-1-methyl-1H-pyrazole-5-carboxamide], the IC50 ([1]; manual dissolution procedure) was 11.2 µM, the IC50 ([2]; manual dissolution procedure) was 0.988 µM and the “Selectivity Ratio” value ([2]; manual dissolution procedure) was 11.4.

For `Cc1nocc1C(=O)Nc1cnc(-c2cc(Cl)cc(Cl)c2Cl)c(N)n1` [Example 18, N-[6-amino-5-(2,3,5-trichlorophenyl)pyrazin-2-yl]-3-methylisoxazole-4-carboxamide], the IC50 ([1]; manual dissolution procedure) was > 30 µM, the IC50 ([2]; manual dissolution procedure) was 0.417 µM and the “Selectivity Ratio” value ([2]; manual dissolution procedure) was >72.0.

For `COc1cc(Cl)c(Cl)c(-c2ncc(NC(=O)c3ccnn3C)nc2N)c1` [Example 12, N-[6-Amino-5-(2,3-dichloro-5-methoxyphenyl)pyrazin-2-yl]-1-methyl-1H-pyrazole-5-carboxamide], the IC50 [1, 3] was 16.6 µM, the IC50 [2, 3] was 1.31 µM and the “Selectivity Ratio” value [2, 3] was 12.67.

In the case of `Cc1nocc1C(=O)Nc1cnc(-c2cccc(Cl)c2Cl)c(N)n1` [Example 17, N-[6-amino-5-(2,3-dichlorophenyl)pyrazin-2-yl]-3-methylisoxazole-4-carboxamide], the IC50 [1, 3] is reported as 12.5 µM, the IC50 [2, 3] is reported as 0.425 µM and the “Selectivity Ratio” value [2, 3] is reported as 29.4.

`COc1ccc(Cl)c(-c2ncc(NC(=O)c3c(C)noc3C)nc2N)c1` [Example 36, N-[6-amino-5-(2-chloro-5-methoxyphenyl)pyrazin-2-yl]-3,5-dimethylisoxazole-4-carboxamide] was tested, and the IC50 [1, 3] was > 30.2 µM, the IC50 [2, 3] was 13.9 µM and the “Selectivity Ratio” value [2, 3] was >2.18.

For `COc1cc(Cl)cc(-c2ncc(NC(=O)c3ccnn3C)nc2N)c1Cl` [Example 6, N-[6-amino-5-(2,5-dichloro-3-methoxyphenyl)pyrazin-2-yl]-1-methyl-1H-pyrazole-5-carboxamide], the IC50 [1, 3] was > 20 µM, the IC50 [2, 3] was 4.71 µM and the “Selectivity Ratio” value [2, 3] was >4.25.

In the case of `COc1ccc(Cl)c(-c2ncc(NC(=O)c3ccnn3C)nc2N)c1` [Example 2, N-[6-Amino-5-(2-chloro-5-methoxyphenyl)pyrazin-2-yl]-1-methyl-1H-pyrazole-5-carboxamide], the IC50 [1, 3] is reported as 38.3 µM, the IC50 [2, 3] is reported as 3.24 µM and the “Selectivity Ratio” value [2, 3] is reported as 11.8.

With `Cn1nccc1C(=O)Nc1cnc(-c2cccc(Cl)c2Cl)c(N)n1` [Example 5, N-[6-amino-5-(2,3-dichlorophenyl)pyrazin-2-yl]-1-methyl-1H-pyrazole-5-carboxamide] the IC50 [1, 3] was > 26.3 µM, the IC50 [2, 3] was 6.14 µM and the “Selectivity Ratio” value [2, 3] was “->4.28”.

`Nc1nc(NC(=O)c2ccon2)cnc1-c1cc(Cl)cc2c1OCCO2` [Example 43, N-[6-amino-5-(7-chloro-2,3-dihydro-1,4-benzodioxin-5-yl)pyrazin-2-yl]isoxazole-3-carboxamide] was tested, and the IC50 [1, 3] was > 30.1 µM, the IC50 [2, 3] was > 21.1 µM and the “Selectivity Ratio” value [2, 3] was “->1.43”.

With `CC(C)c1oncc1C(=O)Nc1cnc(-c2ccccc2Cl)c(N)n1` [Example 51, N-[6-amino-5-(2-chlorophenyl)pyrazin-2-yl]-5-isopropylisoxazole-4-carboxamide] the IC50 [1, 3] was > 21.1 µM, the IC50 [2, 3] was 0.964 µM and the “Selectivity Ratio” value [2, 3] was >21.89.

With `Cc1nonc1C(=O)Nc1cnc(-c2cc(Cl)cc3c2OCCO3)c(N)n1` [Example 41, N-[6-amino-5-(7-chloro-2,3-dihydro-14-benzodioxin-5-yl)pyrazin-2-yl]-4-methyl-1,2,5-oxadiazole-3-carboxamide] the IC50 [1, 3] was > 28.2 µM, the IC50 [2, 3] was 12.7 µM and the “Selectivity Ratio” value [2, 3] was >2.22.
